Measurements reported in US10723741B1, “DNA polymerase IIIC inhibitors and use thereof” (Acurx Pharmaceuticals, LLC, priority 2018, dated 2020).
Converted amounts (≈) assume the structure as drawn. Like-named read-outs stand apart in the source and are kept apart here.

Legend:
Type in all cases: cell-based
[1] = tested on: Staphylococcus aureus ATCC 29213 (MSSA); experiment: Broth microdilution MIC, S. aureus ATCC 29213 (MSSA); settings: broth microdilution, 37° C., 20 hours, read-out: MIC S. aureus ATCC 29213 (MSSA)
How it was run: (§1)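 Broth microdilution in strain-specific test medium with ~5.0×10^5 cfu/ml inoculum, 1% DMSO and two-fold compound dilutions from 64 to 0.0625 μg/ml. Plates were held 20 hours at 37° C in ambient air. S. pneumoniae colonies were grown beforehand on blood agar in 5% CO2.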

[2] = tested on: Staphylococcus aureus NRS384 (MRSA); experiment: Broth microdilution MIC, S. aureus NRS384 (MRSA); settings: Staphylococcus aureus, broth microdilution, 37° C., 20 hours
How it was run: as §1

[3] = tested on: Enterococcus faecalis ATCC 29212; experiment: Broth microdilution MIC, E. faecalis ATCC 29212; settings: ATCC29212, broth microdilution, 37° C., 20 hours, read-out: MIC E. faecalis ATCC 29212
How it was run: as §1

[4] = tested on: Enterococcus faecium ATCC 700221 (VRE); experiment: Broth microdilution MIC, E. faecium ATCC 700221 (VRE); settings: Enterococcus faecium, broth microdilution, 37° C., 20 hours
How it was run: as §1

[5] = tested on: Bacillus subtilis ATCC 6633; experiment: Broth microdilution MIC, B. subtilis ATCC 6633; settings: ATCC6633, broth microdilution, 37° C., 20 hours, read-out: MIC B. subtilis ATCC 6633
How it was run: as §1

[6] = tested on: Escherichia coli ATCC 25922; experiment: Broth microdilution MIC, E. coli ATCC 25922 (MHIIB w & w/o 4 mM EDTA); settings: broth microdilution, 37° C., 20 hours; for MIC: Escherichia coli, ATCC25922, without EDTA, read-out: MIC E. coli ATCC 25922; for MIC E. coli ATCC 25922 + 4 mM EDTA: with 4 mM EDTA
How it was run: as §1

[7] = tested on: Streptococcus pneumoniae ATCC 49619; experiment: Broth microdilution MIC, S. pneumoniae ATCC 49619; settings: ATCC49619, broth microdilution, 37° C., 20 hours, read-out: MIC S. pneumoniae ATCC 49619
How it was run: as §1

[8] = read-out: MIC E. faecium ATCC 700221 (VRE)

O=C(CCCCn1ncc2nc(NCc3ccc(Cl)c(Cl)c3)[nH]c(=O)c21)NO [Compound 217, 5-[5-[(3,4-dichlorophenyl)methylamino]-7-oxo-6H-pyrazolo[4,3-d]pyrimidin-1-yl]pentanehydroxamic acid]
MIC [1]: 32 µg/mL (≈ 75.2 µM)
MIC ([2]; read-out: MIC NRS 384 (MRSA)): 32 µg/mL (≈ 75.2 µM)
MIC [3]: 16 µg/mL (≈ 37.6 µM)
MIC [4, 8]: 16 µg/mL (≈ 37.6 µM)
MIC [5]: 8 µg/mL (≈ 18.8 µM)
MIC [6]: > 64 µg/mL
MIC E. coli ATCC 25922 + 4 mM EDTA [6]: >64 µg/mL
MIC [7]: 4 µg/mL (≈ 9.41 µM)

O=C(O)CCCCn1ncc2nc(NCc3ccc(Cl)c(Cl)c3)[nH]c(=O)c21 [Compound 219, 5-[5-[(3,4-dichlorophenyl)methylamino]-7-oxo-6H-pyrazolo[4,3-d]pyrimidin-1-yl]pentanoic Acid]
MIC [1]: 32 µg/mL (≈ 78 µM)
MIC ([2]; read-out: MIC NRS 384 (MRSA)): 16 µg/mL (≈ 39 µM)
MIC [3]: 16 µg/mL (≈ 39 µM)
MIC [4, 8]: 4 µg/mL (≈ 9.75 µM)
MIC [5]: 32 µg/mL (≈ 78 µM)
MIC [6]: > 64 µg/mL
MIC E. coli ATCC 25922 + 4 mM EDTA [6]: >64 µg/mL
MIC [7]: 4 µg/mL (≈ 9.75 µM)

CS(=O)(=O)CCOCCn1ncc2nc(NCc3ccc(Cl)c(Cl)c3)[nH]c(=O)c21 [Compound 220, 5-((3,4-dichlorobenzyl)amino)-1-(2-(2-(methylsulfonyl)ethoxy)ethyl)-1H-pyrazolo[4,3-d]pyrimidin-7(6H)-one]
MIC [1]: 8 µg/mL (≈ 17.4 µM)
MIC ([2]; read-out: MIC NRS 384 (MRSA)): 16 µg/mL (≈ 34.8 µM)
MIC [3]: 8 µg/mL (≈ 17.4 µM)
MIC [4, 8]: 2 µg/mL (≈ 4.34 µM)
MIC [5]: 4 µg/mL (≈ 8.69 µM)
MIC [6]: > 64 µg/mL
MIC E. coli ATCC 25922 + 4 mM EDTA [6]: >64 µg/mL
MIC [7]: 2 µg/mL (≈ 4.34 µM)

O=c1[nH]c(NCc2ccc(Cl)c(Cl)c2)nc2cnn(CCCc3nnn[nH]3)c12 [Compound 221, 1-(3-(1H-tetrazol-5-yl)propyl)-5-((3,4-dichlorobenzyl)amino)-1H-pyrazolo[4,3-d]pyrimidin-7(6H)-one]
MIC [1]: > 64 µg/mL
MIC ([2]; read-out: MIC NRS 384 (MRSA)): > 64 µg/mL
MIC [3]: > 64 µg/mL
MIC [4, 8]: 32 µg/mL (≈ 76.1 µM)
MIC [5]: > 64 µg/mL
MIC [6]: > 64 µg/mL
MIC E. coli ATCC 25922 + 4 mM EDTA [6]: >64 µg/mL
MIC [7]: 64 µg/mL (≈ 152 µM)

O=c1[nH]c(NCc2ccc(Cl)c(Cl)c2)nc2cnn(-c3ccncc3)c12 [Compound 222, 5-[(3,4-dichlorophenyl)methylamino]-1-(4-pyridyl)-6H-pyrazolo[4,3-d]pyrimidin-7-one]
MIC [1]: 2 µg/mL (≈ 5.16 µM)
MIC ([2]; read-out: MIC NRS 384 (MRSA)): 1 µg/mL (≈ 2.58 µM)
MIC ([2]; MHIIB, read-out: MIC against S. aureus NRS 384 (MRSA)): ≤ 1 µg/mL
MIC [3]: 4 µg/mL (≈ 10.3 µM)
MIC [4, 8]: 2 µg/mL (≈ 5.16 µM)
MIC ([4]; MHIIB, read-out: MIC against E. faecium ATCC 700221 (VRE)): ≤ 1 µg/mL
MIC [5]: 1 µg/mL (≈ 2.58 µM)
MIC [6]: > 64 µg/mL
MIC E. coli ATCC 25922 + 4 mM EDTA [6]: 64 µg/mL
MIC [7]: 2 µg/mL (≈ 5.16 µM)

CC(C(=O)O)n1cc2nc(NCc3ccc(Cl)c(Cl)c3)[nH]c(=O)c2n1 (centres unmarked) [Compound 223, 2-(5-((3,4-dichlorobenzyl)amino)-7-oxo-6,7-dihydro-2H-pyrazolo[4,3-d]pyrimidin-2-yl)propanoic acid]
MIC [1]: > 64 µg/mL
MIC ([2]; read-out: MIC NRS 384 (MRSA)): > 64 µg/mL
MIC [3]: > 64 µg/mL
MIC [4, 8]: > 64 µg/mL
MIC [5]: > 64 µg/mL
MIC [6]: > 64 µg/mL
MIC E. coli ATCC 25922 + 4 mM EDTA [6]: >64 µg/mL
MIC [7]: > 64 µg/mL

COC(=O)C(C)n1cc2nc(NCc3ccc(Cl)c(Cl)c3)[nH]c(=O)c2n1 (centres unmarked) [Compound 224, Methyl 2-(5-((3,4-dichlorobenzyl)amino)-7-oxo-6,7-dihydro-2H-pyrazolo[4,3-d]pyrimidin-2-yl)propanoate]
MIC [1]: > 64 µg/mL
MIC ([2]; read-out: MIC NRS 384 (MRSA)): > 64 µg/mL
MIC [3]: > 64 µg/mL
MIC [4, 8]: > 64 µg/mL
MIC [5]: > 64 µg/mL
MIC [6]: > 64 µg/mL
MIC E. coli ATCC 25922 + 4 mM EDTA [6]: >64 µg/mL
MIC [7]: 32 µg/mL (≈ 80.8 µM)

CC(CO)n1cc2nc(NCc3ccc(Cl)c(Cl)c3)[nH]c(=O)c2n1 (centres unmarked) [Compound 225, 5-((3,4-dichlorobenzyl)amino)-2-(1-hydroxypropan-2-yl)-2H-pyrazolo[4,3-d]pyrimidin-7(6H)-one]
MIC [1]: 64 µg/mL (≈ 174 µM)
MIC ([2]; read-out: MIC NRS 384 (MRSA)): 64 µg/mL (≈ 174 µM)
MIC [3]: 64 µg/mL (≈ 174 µM)
MIC [4, 8]: 32 µg/mL (≈ 86.9 µM)
MIC [5]: 32 µg/mL (≈ 86.9 µM)
MIC [6]: > 64 µg/mL
MIC E. coli ATCC 25922 + 4 mM EDTA [6]: >64 µg/mL
MIC [7]: 16 µg/mL (≈ 43.5 µM)

CC(C(=O)O)n1ncc2nc(NCc3ccc(Cl)c(Cl)c3)[nH]c(=O)c21 (centres unmarked) [Compound 226, 2-(5-((3,4-dichlorobenzyl)amino)-7-oxo-6,7-dihydro-1H-pyrazolo[4,3-d]pyrimidin-1-yl)propanoic acid]
MIC [1]: > 64 µg/mL
MIC ([2]; read-out: MIC NRS 384 (MRSA)): 64 µg/mL (≈ 167 µM)
MIC [3]: > 64 µg/mL
MIC [4, 8]: 64 µg/mL (≈ 167 µM)
MIC [5]: 64 µg/mL (≈ 167 µM)
MIC [6]: > 64 µg/mL
MIC E. coli ATCC 25922 + 4 mM EDTA [6]: >64 µg/mL
MIC [7]: > 64 µg/mL

COC(=O)C(C)n1ncc2nc(NCc3ccc(Cl)c(Cl)c3)[nH]c(=O)c21 (centres unmarked) [Compound 227, Methyl 2-(5-((3,4-dichlorobenzyl)amino)-7-oxo-6,7-dihydro-1H-pyrazolo[4,3-d]pyrimidin-1-yl)propanoate]
MIC [1]: 8 µg/mL (≈ 20.2 µM)
MIC ([2]; read-out: MIC NRS 384 (MRSA)): 8 µg/mL (≈ 20.2 µM)
MIC [3]: 16 µg/mL (≈ 40.4 µM)
MIC [4, 8]: 4 µg/mL (≈ 10.1 µM)
MIC [5]: 4 µg/mL (≈ 10.1 µM)
MIC [6]: > 64 µg/mL
MIC E. coli ATCC 25922 + 4 mM EDTA [6]: 32 µg/mL
MIC [7]: 16 µg/mL (≈ 40.4 µM)

CC(CO)n1ncc2nc(NCc3ccc(Cl)c(Cl)c3)[nH]c(=O)c21 (centres unmarked) [Compound 228, 5-((3,4-dichlorobenzyl)amino)-1-(1-hydroxypropan-2-yl)-1H-pyrazolo[4,3-d]pyrimidin-7(6H)-one]
MIC [1]: 16 µg/mL (≈ 43.5 µM)
MIC ([2]; read-out: MIC NRS 384 (MRSA)): 8 µg/mL (≈ 21.7 µM)
MIC [3]: 16 µg/mL (≈ 43.5 µM)
MIC [4, 8]: 8 µg/mL (≈ 21.7 µM)
MIC [5]: 4 µg/mL (≈ 10.9 µM)
MIC [6]: > 64 µg/mL
MIC E. coli ATCC 25922 + 4 mM EDTA [6]: 64 µg/mL
MIC [7]: 8 µg/mL (≈ 21.7 µM)

O=C(O)CCn1ncc2nc(NCc3ccc(Cl)c(Cl)c3)[nH]c(=O)c21 [Compound 229, 3-(5-((3,4-dichlorobenzyl)amino)-7-oxo-6,7-dihydro-1H-pyrazolo[4,3-d]pyrimidin-1-yl)propanoic Acid]
MIC [1]: > 64 µg/mL
MIC ([2]; read-out: MIC NRS 384 (MRSA)): > 64 µg/mL
MIC [3]: 64 µg/mL (≈ 167 µM)
MIC [4, 8]: 64 µg/mL (≈ 167 µM)
MIC [5]: > 64 µg/mL
MIC [6]: > 64 µg/mL
MIC E. coli ATCC 25922 + 4 mM EDTA [6]: >64 µg/mL
MIC [7]: 16 µg/mL (≈ 41.9 µM)

O=C(O)CCn1cc2nc(NCc3ccc(Cl)c(Cl)c3)[nH]c(=O)c2n1 [Compound 230, 3-(5-((3,4-Dichlorobenzyl)amino)-7-oxo-6,7-dihydro-2H-pyrazolo[4,3-d]pyrimidin-2-yl)propanoic acid]
MIC [1]: > 64 µg/mL
MIC ([2]; read-out: MIC NRS 384 (MRSA)): 64 µg/mL (≈ 167 µM)
MIC [3]: 64 µg/mL (≈ 167 µM)
MIC [4, 8]: 64 µg/mL (≈ 167 µM)
MIC [5]: 64 µg/mL (≈ 167 µM)
MIC [6]: > 64 µg/mL
MIC E. coli ATCC 25922 + 4 mM EDTA [6]: 64 µg/mL
MIC [7]: 32 µg/mL (≈ 83.7 µM)

COC(=O)CCn1ncc2nc(NCc3ccc(Cl)c(Cl)c3)[nH]c(=O)c21 [Compound 231, Methyl 3-(5-((3,4-dichlorobenzyl)amino)-7-oxo-6,7-dihydro-1H-pyrazolo[4,3-d]pyrimidin-1-yl)propanoate]
MIC [1]: 4 µg/mL (≈ 10.1 µM)
MIC ([2]; read-out: MIC NRS 384 (MRSA)): 2 µg/mL (≈ 5.05 µM)
MIC [3]: 4 µg/mL (≈ 10.1 µM)
MIC [4, 8]: 2 µg/mL (≈ 5.05 µM)
MIC [5]: 1 µg/mL (≈ 2.52 µM)
MIC [6]: > 64 µg/mL
MIC E. coli ATCC 25922 + 4 mM EDTA [6]: >64 µg/mL
MIC [7]: 4 µg/mL (≈ 10.1 µM)

COC(=O)CCn1cc2nc(NCc3ccc(Cl)c(Cl)c3)[nH]c(=O)c2n1 [Compound 232, Methyl 3-(5-((3,4-dichlorobenzyl)amino)-7-oxo-6,7-dihydro-2H-pyrazolo[4,3-d]pyrimidin-2-yl)propanoate]
MIC [1]: > 64 µg/mL
MIC ([2]; read-out: MIC NRS 384 (MRSA)): 32 µg/mL (≈ 80.8 µM)
MIC [3]: > 64 µg/mL
MIC [4, 8]: 16 µg/mL (≈ 40.4 µM)
MIC [5]: 16 µg/mL (≈ 40.4 µM)
MIC [6]: > 64 µg/mL
MIC E. coli ATCC 25922 + 4 mM EDTA [6]: >64 µg/mL
MIC [7]: 16 µg/mL (≈ 40.4 µM)
